# From BindingDB's records for doi:10.1016/j.bmcl.2003.11.012 (Novo Nordisk, 2003)
# Biological target: Growth hormone secretagogue receptor type 1 (Homo sapiens, UniProt Q92847)
# Assay: ChEBML_72507
# Description: Inhibition of ghrelin binding to Growth hormone secretagogue receptor expressed in BHK cells
# Chain of Growth hormone secretagogue receptor type 1 (Q92847 whole entry): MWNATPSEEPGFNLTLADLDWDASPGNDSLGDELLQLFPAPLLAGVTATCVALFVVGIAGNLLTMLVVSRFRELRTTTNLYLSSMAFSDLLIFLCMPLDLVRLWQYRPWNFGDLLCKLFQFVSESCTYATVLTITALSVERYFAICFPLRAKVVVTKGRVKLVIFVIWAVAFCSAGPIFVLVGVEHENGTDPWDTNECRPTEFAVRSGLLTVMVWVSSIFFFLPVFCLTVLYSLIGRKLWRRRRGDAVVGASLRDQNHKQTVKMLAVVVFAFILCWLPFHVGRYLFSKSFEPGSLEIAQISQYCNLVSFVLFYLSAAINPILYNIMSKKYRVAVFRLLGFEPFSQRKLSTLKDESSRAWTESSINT
row,IC50 [µM],SMILES
1,> 100,"CN(C)C(=O)CCn1c(O)c(CCc2ccccc2)n(Cc2ccc(-c3ccccc3-c3nnn[nH]3)cc2)c1=O [3-{(S)-2,5-Dioxo-4-phenethyl-3-[2'-(2H-tetrazol-5-yl)-biphenyl-4-ylmethyl]-imidazolidin-1-yl}-N,N-dimethyl-propionamide]"
2,> 100,"NCCCn1c(O)c(CCc2ccccc2)n(Cc2ccc(-c3ccccc3-c3nnn[nH]3)cc2)c1=O [(S)-3-(3-Amino-propyl)-5-phenethyl-1-[2'-(2H-tetrazol-5-yl)-biphenyl-4-ylmethyl]-imidazolidine-2,4-dione]"
3,35,CN(C)CCCn1c(O)c(-c2ccccc2)n(Cc2ccc(-c3ccccc3-c3nnn[nH]3)cc2)c1=S [(S)-3-(3-Dimethylamino-propyl)-5-phenyl-1-[2'-(2H-tetrazol-5-yl)-biphenyl-4-ylmethyl]-2-thioxo-imidazolidin-4-one]
4,> 100,CN(C)c1ccc(-n2c(O)c(CCc3ccccc3)n(Cc3ccc(-c4ccccc4-c4nnn[nH]4)cc3)c2=S)cc1 [(S)-3-(4-Dimethylamino-phenyl)-5-phenethyl-1-[2'-(2H-tetrazol-5-yl)-biphenyl-4-ylmethyl]-2-thioxo-imidazolidin-4-one]
5,35,CN(C)CCCn1c(O)c(Cc2ccccc2)n(Cc2ccc(-c3ccccc3-c3nnn[nH]3)cc2)c1=S [(S)-5-Benzyl-3-(3-dimethylamino-propyl)-1-[2'-(2H-tetrazol-5-yl)-biphenyl-4-ylmethyl]-2-thioxo-imidazolidin-4-one]
